Data published in the kinase profiling compilation of Christmann-Franck et al. (2016).

Experiments:
Assay in all cases: KINOMEscan competition binding
Conditions in all cases: compound 10.0 µM
[1] = target: ABL2 (human) (UniProt P42684)
[2] = target: ACVR2B (human) (UniProt Q13705)
[3] = target: AXL (human) (UniProt P30530)
[4] = target: BTK (human) (UniProt Q06187)
[5] = target: CDK14 (human) (UniProt O94921)
[6] = target: CDK7 (human) (UniProt P50613)
[7] = target: CDKL3 (human) (UniProt Q8IVW4)
[8] = target: CLK3 (human) (UniProt P49761)
[9] = target: CaMK1 (human) (UniProt Q14012)
[10] = target: DCLK3 (human) (UniProt Q9C098)
[11] = target: DYRK2 (human) (UniProt Q92630)
[12] = target: EPHA8 (human) (UniProt P29322)
[13] = target: EPHB1 (human) (UniProt P54762)
[14] = target: ERBB2 (human) (UniProt P04626)
[15] = target: ERBB4 (human) (UniProt Q15303)
[16] = target: GAK (human) (UniProt O14976)
[17] = target: GSK3B (human) (UniProt P49841)
[18] = target: HIPK3 (human) (UniProt Q9H422)
[19] = target: HUNK (human) (UniProt P57058)
[20] = target: IGF1R (human) (UniProt P08069)
[21] = target: INSRR (human) (UniProt P14616)
[22] = target: MAP2K1 (human) (UniProt Q02750)
[23] = target: MAP2K6 (human) (UniProt P52564)
[24] = target: MAP3K3 (human) (UniProt Q99759)
[25] = target: MTOR (human) (UniProt P42345)
[26] = target: NEK6 (human) (UniProt Q9HC98)
[27] = target: NTRK3 (human) (UniProt Q16288)
[28] = target: PAK2 (human) (UniProt Q13177)
[29] = target: PAK6 (human) (UniProt Q9NQU5)
[30] = target: PI4KB (human) (UniProt Q9UBF8)
[31] = target: PRKD1 (human) (UniProt Q15139)
[32] = test system: RET (human), P07949 [V804M]
[33] = target: RPS6KA1 KD1 (human) (UniProt Q15418)
[34] = target: RPS6KB1 (human) (UniProt P23443)
[35] = target: SBK1 (human) (UniProt Q52WX2)
[36] = target: STK17B (human) (UniProt O94768)
[37] = target: STK35 (human) (UniProt Q8TDR2)
[38] = target: SYK (human) (UniProt P43405)
[39] = target: TEK (human) (UniProt Q02763)
[40] = target: TESK1 (human) (UniProt Q15569)
[41] = target: TLK1 (human) (UniProt Q9UKI8)

CaMK1 (human), sequence (Q14012 whole entry, looked up): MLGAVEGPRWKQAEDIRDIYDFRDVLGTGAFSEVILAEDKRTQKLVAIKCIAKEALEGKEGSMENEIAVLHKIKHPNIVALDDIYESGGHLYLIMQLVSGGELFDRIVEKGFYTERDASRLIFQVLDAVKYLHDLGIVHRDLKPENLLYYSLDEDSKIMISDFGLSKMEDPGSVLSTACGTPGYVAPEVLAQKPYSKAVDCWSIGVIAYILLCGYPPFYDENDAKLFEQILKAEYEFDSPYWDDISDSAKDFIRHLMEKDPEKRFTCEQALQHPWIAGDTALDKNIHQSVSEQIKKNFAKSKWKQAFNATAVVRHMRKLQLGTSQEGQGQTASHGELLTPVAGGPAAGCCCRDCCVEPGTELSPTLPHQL
DYRK2 (human), sequence (Q92630 whole entry, looked up): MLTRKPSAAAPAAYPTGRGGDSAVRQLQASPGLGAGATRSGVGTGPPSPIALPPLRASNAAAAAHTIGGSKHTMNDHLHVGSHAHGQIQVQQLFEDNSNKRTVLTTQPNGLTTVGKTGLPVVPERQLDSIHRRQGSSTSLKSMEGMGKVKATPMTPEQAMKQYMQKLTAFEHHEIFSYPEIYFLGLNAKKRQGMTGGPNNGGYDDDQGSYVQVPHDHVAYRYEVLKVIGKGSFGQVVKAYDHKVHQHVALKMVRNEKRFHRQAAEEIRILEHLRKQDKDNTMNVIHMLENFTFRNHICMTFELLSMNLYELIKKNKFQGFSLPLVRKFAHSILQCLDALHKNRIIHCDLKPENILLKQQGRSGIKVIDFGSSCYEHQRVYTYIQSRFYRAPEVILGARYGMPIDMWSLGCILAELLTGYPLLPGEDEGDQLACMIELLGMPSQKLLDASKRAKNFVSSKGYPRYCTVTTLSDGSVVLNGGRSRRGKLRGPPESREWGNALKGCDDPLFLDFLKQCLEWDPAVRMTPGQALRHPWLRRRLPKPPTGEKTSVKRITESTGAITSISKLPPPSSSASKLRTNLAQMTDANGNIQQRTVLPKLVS
MAP3K3 (human), sequence (Q99759 whole entry, looked up): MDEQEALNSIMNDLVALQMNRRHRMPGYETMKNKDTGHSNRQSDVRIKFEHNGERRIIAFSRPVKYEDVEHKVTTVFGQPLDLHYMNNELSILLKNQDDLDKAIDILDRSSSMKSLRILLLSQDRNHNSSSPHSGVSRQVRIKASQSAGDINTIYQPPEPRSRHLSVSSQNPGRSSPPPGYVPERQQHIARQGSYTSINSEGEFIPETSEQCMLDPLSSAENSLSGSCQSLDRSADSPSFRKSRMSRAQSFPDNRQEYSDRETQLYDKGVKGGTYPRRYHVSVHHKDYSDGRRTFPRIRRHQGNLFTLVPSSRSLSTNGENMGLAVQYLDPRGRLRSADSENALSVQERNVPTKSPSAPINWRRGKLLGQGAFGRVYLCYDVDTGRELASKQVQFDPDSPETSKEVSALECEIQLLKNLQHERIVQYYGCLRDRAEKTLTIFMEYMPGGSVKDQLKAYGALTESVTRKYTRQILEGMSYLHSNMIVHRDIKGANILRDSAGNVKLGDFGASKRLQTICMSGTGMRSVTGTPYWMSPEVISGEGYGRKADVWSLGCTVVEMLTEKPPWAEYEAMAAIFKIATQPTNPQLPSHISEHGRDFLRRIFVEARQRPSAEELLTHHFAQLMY
HIPK3 (human), sequence (Q9H422 whole entry, looked up): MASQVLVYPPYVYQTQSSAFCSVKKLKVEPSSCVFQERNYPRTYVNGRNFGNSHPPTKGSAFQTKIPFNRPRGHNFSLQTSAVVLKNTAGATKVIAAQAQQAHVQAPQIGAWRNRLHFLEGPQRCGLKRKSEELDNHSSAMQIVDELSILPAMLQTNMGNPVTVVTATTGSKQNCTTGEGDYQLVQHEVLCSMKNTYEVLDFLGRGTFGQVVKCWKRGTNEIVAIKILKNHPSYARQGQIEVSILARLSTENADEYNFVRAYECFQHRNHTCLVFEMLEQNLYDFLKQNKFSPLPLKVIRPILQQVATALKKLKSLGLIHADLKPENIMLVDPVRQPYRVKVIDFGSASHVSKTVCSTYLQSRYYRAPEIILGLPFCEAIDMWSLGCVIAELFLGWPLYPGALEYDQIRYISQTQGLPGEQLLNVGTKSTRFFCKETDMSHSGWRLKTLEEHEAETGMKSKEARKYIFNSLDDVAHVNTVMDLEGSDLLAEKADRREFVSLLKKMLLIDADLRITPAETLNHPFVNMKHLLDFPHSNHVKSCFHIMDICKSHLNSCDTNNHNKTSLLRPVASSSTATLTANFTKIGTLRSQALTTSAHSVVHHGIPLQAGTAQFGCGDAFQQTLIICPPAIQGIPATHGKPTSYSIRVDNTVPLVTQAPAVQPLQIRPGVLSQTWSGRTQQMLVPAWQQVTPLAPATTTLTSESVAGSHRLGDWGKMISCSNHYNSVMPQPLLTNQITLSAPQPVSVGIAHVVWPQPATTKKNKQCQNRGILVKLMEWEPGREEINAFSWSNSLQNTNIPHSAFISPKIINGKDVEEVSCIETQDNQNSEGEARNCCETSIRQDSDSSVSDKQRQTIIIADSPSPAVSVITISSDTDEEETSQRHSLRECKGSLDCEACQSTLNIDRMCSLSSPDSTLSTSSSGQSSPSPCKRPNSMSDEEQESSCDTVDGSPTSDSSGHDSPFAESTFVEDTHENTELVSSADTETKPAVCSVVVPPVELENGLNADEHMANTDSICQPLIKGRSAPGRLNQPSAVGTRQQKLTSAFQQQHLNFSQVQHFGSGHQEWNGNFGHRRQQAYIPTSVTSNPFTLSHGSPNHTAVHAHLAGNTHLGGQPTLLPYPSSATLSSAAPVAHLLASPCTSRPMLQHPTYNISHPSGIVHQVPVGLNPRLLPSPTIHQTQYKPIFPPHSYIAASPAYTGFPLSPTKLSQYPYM
PI4KB (human), sequence (Q9UBF8 whole entry, looked up): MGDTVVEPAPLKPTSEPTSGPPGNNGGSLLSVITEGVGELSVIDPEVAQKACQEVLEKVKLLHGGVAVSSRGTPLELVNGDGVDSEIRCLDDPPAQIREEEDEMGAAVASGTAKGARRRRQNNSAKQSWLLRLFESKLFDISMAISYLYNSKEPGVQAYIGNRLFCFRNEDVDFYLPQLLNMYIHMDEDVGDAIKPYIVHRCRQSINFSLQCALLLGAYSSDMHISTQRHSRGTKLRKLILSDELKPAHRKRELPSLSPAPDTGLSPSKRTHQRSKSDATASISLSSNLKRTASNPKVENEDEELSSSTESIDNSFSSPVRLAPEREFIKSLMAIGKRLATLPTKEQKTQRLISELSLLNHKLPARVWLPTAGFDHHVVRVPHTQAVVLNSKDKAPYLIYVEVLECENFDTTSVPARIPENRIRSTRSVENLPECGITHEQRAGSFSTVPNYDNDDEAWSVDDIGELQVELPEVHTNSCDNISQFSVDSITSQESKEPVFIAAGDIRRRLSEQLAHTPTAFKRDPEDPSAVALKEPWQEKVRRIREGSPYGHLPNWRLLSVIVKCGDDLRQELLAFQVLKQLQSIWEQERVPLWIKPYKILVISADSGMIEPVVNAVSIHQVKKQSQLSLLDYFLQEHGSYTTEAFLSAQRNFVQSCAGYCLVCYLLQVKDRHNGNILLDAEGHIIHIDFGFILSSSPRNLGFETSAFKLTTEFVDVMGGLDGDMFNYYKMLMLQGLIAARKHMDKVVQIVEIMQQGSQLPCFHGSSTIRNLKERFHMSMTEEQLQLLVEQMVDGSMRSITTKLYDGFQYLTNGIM
CDKL3 (human), sequence (Q8IVW4 whole entry, looked up): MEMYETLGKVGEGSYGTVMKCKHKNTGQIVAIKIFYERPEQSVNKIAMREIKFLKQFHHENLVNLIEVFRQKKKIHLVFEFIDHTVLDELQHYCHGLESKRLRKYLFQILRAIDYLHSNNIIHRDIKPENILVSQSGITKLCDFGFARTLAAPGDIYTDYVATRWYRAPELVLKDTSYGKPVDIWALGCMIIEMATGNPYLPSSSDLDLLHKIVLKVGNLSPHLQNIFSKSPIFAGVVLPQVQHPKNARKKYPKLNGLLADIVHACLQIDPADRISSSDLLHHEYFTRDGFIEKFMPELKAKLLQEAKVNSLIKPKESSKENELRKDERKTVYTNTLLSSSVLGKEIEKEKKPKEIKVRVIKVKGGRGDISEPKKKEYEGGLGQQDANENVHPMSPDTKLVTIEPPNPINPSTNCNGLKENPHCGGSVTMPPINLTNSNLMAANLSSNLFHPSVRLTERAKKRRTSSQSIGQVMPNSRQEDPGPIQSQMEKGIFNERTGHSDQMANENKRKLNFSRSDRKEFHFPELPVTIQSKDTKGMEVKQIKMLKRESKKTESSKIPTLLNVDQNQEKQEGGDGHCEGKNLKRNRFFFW
ACVR2B (human), sequence (Q13705 whole entry, looked up): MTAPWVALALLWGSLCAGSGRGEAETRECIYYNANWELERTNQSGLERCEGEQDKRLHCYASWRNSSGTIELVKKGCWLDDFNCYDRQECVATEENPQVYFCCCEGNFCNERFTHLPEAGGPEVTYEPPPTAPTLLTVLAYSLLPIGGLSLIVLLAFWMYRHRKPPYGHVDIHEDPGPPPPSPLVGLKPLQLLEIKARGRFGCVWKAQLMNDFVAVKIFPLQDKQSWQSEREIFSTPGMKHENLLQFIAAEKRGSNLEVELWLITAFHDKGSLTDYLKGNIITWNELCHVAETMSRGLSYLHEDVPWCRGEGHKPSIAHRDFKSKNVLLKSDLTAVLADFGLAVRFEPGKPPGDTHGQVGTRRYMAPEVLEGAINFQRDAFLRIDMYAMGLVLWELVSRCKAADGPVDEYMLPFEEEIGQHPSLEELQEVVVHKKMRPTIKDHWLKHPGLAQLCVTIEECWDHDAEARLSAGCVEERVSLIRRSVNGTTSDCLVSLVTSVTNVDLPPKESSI
NEK6 (human), sequence (Q9HC98 whole entry, looked up): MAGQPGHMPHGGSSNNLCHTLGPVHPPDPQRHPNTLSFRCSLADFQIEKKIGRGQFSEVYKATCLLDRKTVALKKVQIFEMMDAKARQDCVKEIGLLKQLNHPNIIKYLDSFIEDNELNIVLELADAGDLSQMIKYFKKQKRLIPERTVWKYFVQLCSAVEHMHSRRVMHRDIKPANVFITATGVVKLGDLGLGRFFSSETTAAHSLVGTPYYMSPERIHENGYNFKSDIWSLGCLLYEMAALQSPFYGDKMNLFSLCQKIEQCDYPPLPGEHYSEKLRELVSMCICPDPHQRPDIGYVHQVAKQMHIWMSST

C=CC(=O)Nc1cc(-n2c(=O)ccc3cnc4ccc(-c5cn[nH]c5)cc4c32)ccc1C
kinase still bound, per cent of control [1]: 86%
kinase still bound, per cent of control [2]: 21%
kinase still bound, per cent of control [3]: 100%
kinase still bound, per cent of control [4]: 0.2%
kinase still bound, per cent of control [5]: 60%
kinase still bound, per cent of control [6]: 3.8%
kinase still bound, per cent of control [7]: 33%
kinase still bound, per cent of control [8]: 46%
kinase still bound, per cent of control [9]: 96%
kinase still bound, per cent of control [10]: 100%
kinase still bound, per cent of control [11]: 0.6%
kinase still bound, per cent of control [12]: 96%
kinase still bound, per cent of control [13]: 94%
kinase still bound, per cent of control [14]: 42%
kinase still bound, per cent of control [15]: 22%
kinase still bound, per cent of control [16]: 18%
kinase still bound, per cent of control [17]: 84%
kinase still bound, per cent of control [18]: 48%
kinase still bound, per cent of control [19]: 86%
kinase still bound, per cent of control [20]: 100%
kinase still bound, per cent of control [21]: 100%
kinase still bound, per cent of control [22]: 69%
kinase still bound, per cent of control [23]: 53%
kinase still bound, per cent of control [24]: 91%
kinase still bound, per cent of control [25]: 0%
kinase still bound, per cent of control [26]: 92%
kinase still bound, per cent of control [27]: 93%
kinase still bound, per cent of control [28]: 87%
kinase still bound, per cent of control [29]: 96%
kinase still bound, per cent of control [30]: 2.3%
kinase still bound, per cent of control [31]: 100%
kinase still bound, per cent of control [32]: 68%
kinase still bound, per cent of control [33]: 87%
kinase still bound, per cent of control [34]: 63%
kinase still bound, per cent of control [35]: 90%
kinase still bound, per cent of control [36]: 100%
kinase still bound, per cent of control [37]: 98%
kinase still bound, per cent of control [38]: 100%
kinase still bound, per cent of control [39]: 100%
kinase still bound, per cent of control [40]: 54%
kinase still bound, per cent of control [41]: 100%

COCC(=O)NC/C=C/c1ccc2ncnc(Nc3ccc(Oc4ccc(C)nc4)c(C)c3)c2c1
kinase still bound, per cent of control [1]: 100%
kinase still bound, per cent of control [2]: 100%
kinase still bound, per cent of control [3]: 68%
kinase still bound, per cent of control [4]: 68%
kinase still bound, per cent of control [5]: 100%
kinase still bound, per cent of control [6]: 100%
kinase still bound, per cent of control [7]: 100%
kinase still bound, per cent of control [8]: 100%
kinase still bound, per cent of control [9]: 72%
kinase still bound, per cent of control [10]: 83%
kinase still bound, per cent of control [11]: 100%
kinase still bound, per cent of control [12]: 98%
kinase still bound, per cent of control [13]: 100%
kinase still bound, per cent of control [14]: 0%
kinase still bound, per cent of control [15]: 0.9%
kinase still bound, per cent of control [16]: 84%
kinase still bound, per cent of control [17]: 68%
kinase still bound, per cent of control [18]: 100%
kinase still bound, per cent of control [19]: 70%
kinase still bound, per cent of control [20]: 83%
kinase still bound, per cent of control [21]: 100%
kinase still bound, per cent of control [22]: 9.4%
kinase still bound, per cent of control [23]: 93%
kinase still bound, per cent of control [24]: 100%
kinase still bound, per cent of control [25]: 79%
kinase still bound, per cent of control [26]: 100%
kinase still bound, per cent of control [27]: 93%
kinase still bound, per cent of control [28]: 87%
kinase still bound, per cent of control [29]: 89%
kinase still bound, per cent of control [30]: 100%
kinase still bound, per cent of control [31]: 85%
kinase still bound, per cent of control [33]: 100%
kinase still bound, per cent of control [34]: 65%
kinase still bound, per cent of control [35]: 100%
kinase still bound, per cent of control [36]: 100%
kinase still bound, per cent of control [37]: 65%
kinase still bound, per cent of control [38]: 100%
kinase still bound, per cent of control [39]: 100%
kinase still bound, per cent of control [40]: 75%
kinase still bound, per cent of control [41]: 79%
